The assay concerns the target T1, Delta-Opioid Receptor (Mus musculus, UniProt P32300).
T1 construct: host or cells: NG108-15
The assay is described as follows: Delta-opioid receptor binding: inhibition of specific binding of 3H NID to intact NG108-15 cells. The note with it: for EC50: EC50 (M), competition with 3H NID, intact NG108-15 cells, 2 hr at 37° C. Here is the method: To do so, 1 to 4 serial dilutions of test compounds and naltrindole (NID, Sigma) are prepared to generate solutions with concentrations ranging from 10^−3 to 10^−14 M in 50 mM Tris buffer, pH 7.5. ^3H NID (American Radiolabeled Chemicals, St. Louis, Mo., specific activity 49 dpm/10^−15 mol) is prepared in Tris at a concentration of 10^−9 M. Cultured cells of the neruablastoma/glioblastoma hybrid cell line NG108-15 (American Type Culture Collection) are briefly trypsinized, washed with media, and resuspended at 6×10^5 cells/mL. 20 μL of test compound or NID solution and 20 μL of ^3H NID are added to each of 96 wells of a Multiscreen assay system (Millipore) MAFB. 160 μL of cell suspension in Dulbecco's MEM+HAT with 10% Fetal Bovine Serum are added. The reactions are allowed to equilibrate 2 hr at 37° C., vacuum filtered, washed 2× with 200 μL ice cold Tris buffer and air dried. The filters are punched out of the plate into scintillation vials and mixed on a shaker overnight before counting.
Data is analyzed by the Prism software package (GraphPad Software, Inc., San Diego, Calif.) using a non-linear curve fit routine for one site competitive binding.

What is called EC50 is the concentration that produces a half-maximal response.

Several values for one entry are separate records, joined by “and”; a condition that tells them apart may be missing. Equal values may be shown once.

T1 sequence (P32300 whole entry): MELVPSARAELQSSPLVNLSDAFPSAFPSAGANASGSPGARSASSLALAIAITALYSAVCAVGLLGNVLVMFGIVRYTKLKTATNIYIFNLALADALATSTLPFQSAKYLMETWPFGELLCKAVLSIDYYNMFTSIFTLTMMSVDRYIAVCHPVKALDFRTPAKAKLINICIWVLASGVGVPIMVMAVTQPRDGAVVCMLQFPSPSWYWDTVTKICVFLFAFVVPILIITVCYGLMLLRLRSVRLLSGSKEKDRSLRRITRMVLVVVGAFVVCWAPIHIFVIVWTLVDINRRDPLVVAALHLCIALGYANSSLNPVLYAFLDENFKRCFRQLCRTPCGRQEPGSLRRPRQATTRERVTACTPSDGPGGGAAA

`Oc1ccc2c3c1O[C@H]1c4[nH]c5ccccc5c4C[C@@]4(O)[C@@H](C2)N(CC2CC2)CC[C@]314` [NID, naltrindole, reference compound]: the EC50 was 4.2e-09 M and 1.8e-09 M.

`O=C(O)CN1CCN(CC(=O)O)CCN(CC(=O)O)C(Cc2ccc(NC(=O)CCCCCNC(=O)Cn3c4c(c5ccccc53)CC3(O)C5Cc6ccc(O)c7c6C3(CCN5CC3CC3)C4O7)cc2)CN(CC(=O)O)CC1` (stereo not shown) [NID-DOTA]: it took 1.2e-08 M to reach a half-maximal effect (EC50). Besides, under “ratio of EC50 of test compound to EC50 of NID in the same test”, the Test/Control is 2.8. Further, where the note is “summary of Table 1”, the “fold lower in affinity than NID” value was “about 3 fold”.
